# Source: ChEMBL document CHEMBL5512622, “Ecto-nucleotide pyrophosphatase/phosphodiesterase 1 inhibitors: Research progress and prospects” (Eur J Med Chem, 2024)
# What was measured:
# [1] = biological target: T1, Ectonucleotide pyrophosphatase/phosphodiesterase family member 1 (Homo sapiens, UniProt P22413); assay: Inhibition of ENPP1 (unknown origin) using cGAMP as substrate assessed as inhibition constant at pH 7.4
# T1 sequence (P22413 whole entry): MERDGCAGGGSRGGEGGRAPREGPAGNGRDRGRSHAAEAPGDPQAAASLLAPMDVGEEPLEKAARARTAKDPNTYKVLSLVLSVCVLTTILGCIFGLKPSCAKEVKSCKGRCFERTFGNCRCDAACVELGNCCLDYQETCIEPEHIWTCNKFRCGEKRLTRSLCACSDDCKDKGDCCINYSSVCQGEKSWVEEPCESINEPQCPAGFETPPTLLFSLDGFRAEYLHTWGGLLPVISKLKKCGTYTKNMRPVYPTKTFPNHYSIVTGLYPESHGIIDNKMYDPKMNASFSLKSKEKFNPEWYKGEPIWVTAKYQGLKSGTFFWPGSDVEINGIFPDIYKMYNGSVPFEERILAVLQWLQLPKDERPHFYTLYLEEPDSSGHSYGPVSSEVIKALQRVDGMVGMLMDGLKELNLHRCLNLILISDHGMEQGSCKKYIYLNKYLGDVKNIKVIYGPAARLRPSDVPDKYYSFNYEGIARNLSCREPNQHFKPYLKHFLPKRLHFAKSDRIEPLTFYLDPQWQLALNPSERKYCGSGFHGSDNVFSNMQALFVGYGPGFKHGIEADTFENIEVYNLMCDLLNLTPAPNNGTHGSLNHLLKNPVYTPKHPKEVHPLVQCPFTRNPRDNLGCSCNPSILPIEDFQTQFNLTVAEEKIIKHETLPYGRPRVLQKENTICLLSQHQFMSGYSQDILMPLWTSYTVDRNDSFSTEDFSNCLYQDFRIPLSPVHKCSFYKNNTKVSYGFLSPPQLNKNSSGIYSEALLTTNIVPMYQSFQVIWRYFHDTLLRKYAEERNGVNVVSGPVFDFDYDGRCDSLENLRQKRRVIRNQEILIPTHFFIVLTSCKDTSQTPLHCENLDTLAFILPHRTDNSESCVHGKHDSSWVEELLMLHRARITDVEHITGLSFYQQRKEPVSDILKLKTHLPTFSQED
# [2] = biological target: T1, Ectonucleotide pyrophosphatase/phosphodiesterase family member 1; assay: Inhibition of recombinant human ENPP1 using p-NP-TMP as substrate incubated for 45 mins by absorbance based analysis
# [3] = biological target: T1, Ectonucleotide pyrophosphatase/phosphodiesterase family member 1; assay: Inhibition of ENPP1 (unknown origin) using TMP-pNP as substrate preincubated for 10 mins followed by substrate addition and measured immediately under pH 8.8 by absorbance based multimode plate reader analysis
# [4] = AUClast in CD-1 mouse at 50 mg/kg, po measured after 24 hrs by LC-MS/MS analysis; assay type: ADME, organism-based; details: in vivo
# [5] = biological target: T2, Ectonucleotide pyrophosphatase/phosphodiesterase family member 1 (Mus musculus, UniProt P06802); assay: Inhibition of ENPP1 in mouse plasma using [32P]cGAMP as substrate; assay type: cell-free
# T2 sequence (P06802 whole entry): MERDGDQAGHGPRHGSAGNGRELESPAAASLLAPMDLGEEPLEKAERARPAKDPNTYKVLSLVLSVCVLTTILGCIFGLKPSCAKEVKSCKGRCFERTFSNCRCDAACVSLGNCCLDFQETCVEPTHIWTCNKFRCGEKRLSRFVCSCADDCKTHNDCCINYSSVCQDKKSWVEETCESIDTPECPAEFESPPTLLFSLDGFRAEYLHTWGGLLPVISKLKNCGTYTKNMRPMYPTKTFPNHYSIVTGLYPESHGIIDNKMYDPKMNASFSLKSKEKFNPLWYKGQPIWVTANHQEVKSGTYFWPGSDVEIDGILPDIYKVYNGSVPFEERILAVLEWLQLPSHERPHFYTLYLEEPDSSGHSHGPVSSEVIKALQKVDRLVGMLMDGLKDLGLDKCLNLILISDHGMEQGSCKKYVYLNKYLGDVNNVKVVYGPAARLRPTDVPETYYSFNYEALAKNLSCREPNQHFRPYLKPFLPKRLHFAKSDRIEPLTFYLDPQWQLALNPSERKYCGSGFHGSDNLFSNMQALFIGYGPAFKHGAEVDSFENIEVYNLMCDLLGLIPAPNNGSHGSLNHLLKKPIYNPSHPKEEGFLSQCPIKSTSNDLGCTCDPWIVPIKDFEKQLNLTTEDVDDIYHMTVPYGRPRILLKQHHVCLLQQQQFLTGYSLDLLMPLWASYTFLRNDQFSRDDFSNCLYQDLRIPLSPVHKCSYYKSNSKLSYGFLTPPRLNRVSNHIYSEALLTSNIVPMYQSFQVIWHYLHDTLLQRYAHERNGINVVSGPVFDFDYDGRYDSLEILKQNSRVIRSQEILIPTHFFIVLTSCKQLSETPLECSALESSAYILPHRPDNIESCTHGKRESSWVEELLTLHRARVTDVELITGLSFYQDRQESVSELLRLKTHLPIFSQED
# [6] = Cmax in CD-1 mouse at 50 mg/kg, po measured after 24 hrs by LC-MS/MS analysis; assay type: ADME, organism-based; details: in vivo
# [7] = biological target: T1, Ectonucleotide pyrophosphatase/phosphodiesterase family member 1; assay: Inhibition of recombinant human ENPP1 using 2',3'-cGAMP as substrate preincubated for 5 to 10 mins followed by substrate addition and measured after 90 mins by […] assay
# [8] = biological target: T3, Ectonucleotide pyrophosphatase/phosphodiesterase family member 1 (Homo sapiens) (UniProt P22413); assay: Binding affinity to recombinant human ENPP1 assessed as thermal stabilization by measuring change in melting temperature incubated for 5 mins by SYPRO orange dye based thermal shift assay
# T3 sequence (whole entry): T1 sequence (P22413 whole entry)
# [9] = system: MDA-MB-231; assay: Antiproliferative activity against human MDA-MB-231 cells incubated for 48 hrs by CCK8 assay; details: MDA-MB-231, 48 h
# [10] = biological target: T1, Ectonucleotide pyrophosphatase/phosphodiesterase family member 1; assay: Inhibition of recombinant human ENPP1 using ATP as substrate assessed as inhibition constant incubated for 30 mins by Lineweaver-Burk plot analysis
# [11] = biological target: T1, Ectonucleotide pyrophosphatase/phosphodiesterase family member 1; assay: Inhibition of human ENPP-1 using 2',3'-cGAMP as substrate preincubated for 15 mins followed by substrate addition and measured after 30 mins by AMP-Glo reagent based assay
# [12] = biological target: T1, Ectonucleotide pyrophosphatase/phosphodiesterase family member 1; assay: Inhibition of recombinant human ENPP-1 using AMP-pNP as substrate incubated for 20 mins by absorbance based plate reader analysis
# [13] = Cmax in ICR mouse at 5 mg/kg, po measured after 24 hrs by LC/MS/MS analysis; assay type: ADME, organism-based; details: in vivo
# [14] = Half-life in ICR mouse at 5 mg/kg, po measured after 24 hrs by LC/MS/MS analysis; assay type: ADME, organism-based; details: in vivo
# [15] = AUC in ICR mouse at 5 mg/kg, po measured after 24 hrs by LC/MS/MS analysis; assay type: ADME, organism-based; details: in vivo
# [16] = biological target: T1, Ectonucleotide pyrophosphatase/phosphodiesterase family member 1; assay: Inhibition of ENPP1 in HEK293 cells using 2',3'-cGAMP as substrate by AMP-Glo assay; assay type: cell-based
# [17] = biological target: T1, Ectonucleotide pyrophosphatase/phosphodiesterase family member 1; assay: Inhibition of ENNP1 (unknown origin) using 2',3'-cGAMP as substrate preincubated with compound followed by substrate addition and measured after 60 mins by AMP-Glo reagent based assay
compound,measurement,setting,value
COc1cccc2c(N3CCC(CCP(=O)(O)O)CC3)c(C#N)cnc12,Ki,[1],< 2 nM
COc1ccc(NC(=O)CSc2nc(C(=O)OCC(O)CO)c[nH]2)cc1OC (stereo unspecified),IC50,[2],< 200 nM
NC(=O)c1c[nH]c2c(NCc3ccc(B(O)O)cc3)ncnc12,Ki,[3],< 100 nM
COc1cccc2c(N3CCC(CCP(=O)(O)O)CC3)ncnc12,AUC(0-t) at 24 h,[4],344 ng·h/mL
same,Ki,[1],< 2 nM
same,Ki,[5],4 nM
same,Cmax,[6],67.2 ng/mL
Nc1ccc(F)c(-c2ccnc3c2CCC(=O)N3)c1,IC50,[7],< 1000 nM
COc1ccc(NC(=O)CSc2nc3c(C)c(C#N)ncc3[nH]2)cc1O,ΔTm,[8],1.11 °C
COc1ccc2[nH]c(SCc3nc4cc(F)ccc4c(=O)[nH]3)nc2c1,IC50,[9],< 1000 nM
COc1ccc2c(c1)nnn2-c1ccc(CNS(N)(=O)=O)c(F)c1,IC50,[7],< 1000 nM
Nc1ncnc2c1ncn2[C@@H](C=O)O[C@@H](C=O)COP(=O)(O)OP(=O)(O)OP(=O)(O)O,Ki,[10],5000 nM
COc1cc2ncc3ncn(Cc4ccc(CS(N)(=O)=O)cn4)c3c2cc1OC,IC50,[11],< 100 nM
same,IC50,[12],< 100 nM
COc1cc2c(-c3ccc(CNS(N)(=O)=O)c(F)c3)n[nH]c(=O)c2cc1OC,IC50,[7],< 1000 nM
CSc1nc(N)c2ncn([C@@H]3O[C@H](COP(=O)(O)OP(=O)(O)O)[C@@H](O)[C@H]3O)c2n1,Ki,[10],5000 nM
COc1ccc2c(Oc3ccc(CC(=O)NO)cc3)ccnc2n1,Cmax,[13],736 ng/mL
same,half-life,[14],3.26 h
same,AUC at 24 h,[15],619 ng·h/mL
CSc1nc(N)c2ncn([C@@H]3O[C@H](COP(=O)(O)OP(=O)(O)OP(=O)(O)O)[C@@H](O)[C@H]3O)c2n1,Ki,[10],5000 nM
COc1cccc2c(N3CCC(CC(CNC(=O)[C@@H](N)C(C)(C)C)P(=O)(O)O)CC3)ncnc12 (stereo partly specified),AUC(0-t) at 24 h,[4],4130 ng·h/mL
same,Ki,[1],< 10 nM
same,IC50,[16],< 10 nM
same,Cmax,[6],1680 ng/mL
COc1ncc2nc(C(F)(F)F)n(Cc3ncc(S(N)(=O)=O)cc3F)c2c1-c1ccccc1,IC50,[17],< 1 nM
Nc1ncnc2c1ncn2[C@@H]1O[C@H](COP(=O)(O)OP(=O)(O)OP(=O)(O)O)[C@@H](OC(=O)c2ccc(C(=O)c3ccccc3)cc2)[C@H]1O,Ki,[10],5000 nM
NC(=O)c1ccc2c(ncn2Cc2ccc(B(O)O)cc2)n1,IC50,[3],< 10 nM
Nc1ncnc2c1ncn2[C@@H]1O[C@H](COP(=O)(O)CP(=O)(O)O)[C@@H](O)[C@H]1O [PHOSPHOMETHYLPHOSPHONIC ACID ADENOSYL ESTER],Ki,[10],5000 nM
COc1ccc(NC(=O)CSc2nc(C(=O)O)c[nH]2)cc1Cl,IC50,[2],< 200 nM
COc1ccc(NC(=O)CSc2nc(C(N)=O)c[nH]2)cc1OC,IC50,[2],< 200 nM
NC(=O)c1c[nH]c2c(NCc3ccc(P(=O)(O)O)cc3)ncnc12,Ki,[3],< 100 nM
